# From US20230183188A1, “ENPP1 MODULATORS AND USES THEREOF” (Vir Biotechnology, Inc., priority 2020, published 2023)
# Biological target: T1, recombinant protein containing the human ENPP1 enzymatic domain (Homo sapiens, UniProt P22413)
# T1 construct: recombinant protein containing the human ENPP1 enzymatic domain; purchased R&D Systems 6136-EN-010
# T1 sequence (P22413 191-591 limits assumed): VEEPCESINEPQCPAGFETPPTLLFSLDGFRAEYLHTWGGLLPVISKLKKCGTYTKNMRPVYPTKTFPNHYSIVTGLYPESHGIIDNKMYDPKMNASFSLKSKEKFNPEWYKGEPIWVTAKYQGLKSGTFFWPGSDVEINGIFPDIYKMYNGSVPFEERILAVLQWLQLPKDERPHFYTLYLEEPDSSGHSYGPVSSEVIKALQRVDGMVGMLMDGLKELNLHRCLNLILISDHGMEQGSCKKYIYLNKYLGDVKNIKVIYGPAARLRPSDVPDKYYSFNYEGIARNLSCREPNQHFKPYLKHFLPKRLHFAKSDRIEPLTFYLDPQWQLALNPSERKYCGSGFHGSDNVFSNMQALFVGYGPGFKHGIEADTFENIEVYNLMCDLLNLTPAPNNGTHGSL
# Test: ENPP1 Enzymatic Inhibition Assay (2′3′-cGAMP substrate, AMP-Glo luminescence)
# Format: biochemical
# Conditions: 1 nM ENPP1, 20 uM 2′3′-cGAMP substrate, 30 minutes at 37° C.
# Procedure: The inhibition of ENPP1's phosphodiesterase activity were tested in a purified enzymatic assay using 2′3′-cyclic GAMP as a substrate which allowed for the release of cleaved AMP to be monitored using a luminescent assay.
# Putative inhibitors were diluted in assay buffer (50 mM Tris pH 8.0, 250 mM NaCl, 0.5 mM CaCl2, 1 uM ZnCl2, 1% DMSO) and pre-incubated for 15 minutes at 37° C. with recombinant protein containing the human ENPP1 enzymatic domain (R&D Systems cat. #6136-EN-010). The enzymatic reaction was initiated upon addition of the 2′3′-cGAMP substrate. The final reaction concentrations were 1 nM ENPP1 and 20 uM 2′3′-cGAMP substrate in a 25 uL volume. Inhibitor concentrations ranged from 10 uM to 0.2 nM. The reaction was incubated for 30 minutes at 37° C.
# After reacting for 30 minutes, the amount of AMP generated from the cleavage of 2′3′-cGAMP was determined using the Promega AMP-Glo method according to the manufacturer's protocol. First, AMP-Glo reagent 1 was added and incubated with the reaction mix for 1 hour at room temperature. Second, AMP Detection solution was added and the mixture was incubated for an additional hour. The luminescence of the mixture was read on a Perkin Elmer Ensight plate reader.
# The maximum and minimum levels of ENPP1 activity were established using no inhibitor and no enzyme controls, respectively. The activity observed using ENPP1 inhibitors was quantified as the percent of activity relative to these controls. IC50 values were calculated using GraphPad Prism by fitting a sigmoidal variable slope nonlinear regression model to the data.
row,SMILES,IC50
1,"COc1ccc2c(Oc3ccc(S(N)(=O)=NCC4CCC4)cc3)ccnc2c1 (stereo not drawn) [Compound 36, N′-(cyclobutylmethyl)-4-((7-methoxyquinolin-4-yl)oxy)benzenesulfonimidamide]",< 10 nM
2,"COc1ccc2c(Oc3ccc(S(N)(=O)=NCC(F)(F)F)cc3)ccnc2c1 (stereo not drawn) [Compound 37, 4-((7-methoxyquinolin-4-yl)oxy)-N′-(2,2,2-trifluoroethyl)benzenesulfonimidamide]",< 10 nM
3,"COc1ccc2c(Oc3ccc(S(N)(=O)=Nc4ccc(-c5ccncc5)cc4)cc3)ccnc2c1 (stereo not drawn) [Compound 38, 4-((7-methoxyquinolin-4-yl)oxy)-N′-(4-(pyridin-4-yl)phenyl)benzenesulfonimidamide]",10 to 100 nM
4,"COc1ccc2c(Oc3ccc(S(N)(=O)=NCCNC(=O)OC(C)(C)C)cc3)ccnc2c1 (stereo not drawn) [Compound 39, tert-butyl (2-((amino(4-((7-methoxyquinolin-4-yl)oxy)phenyl)(oxo)-λ^6-sulfaneylidene)amino)ethyl) carbamate]",10 to 100 nM

# More lines, now with the values ahead:
row,IC50,SMILES
1,10 to 100 nM,"COc1ccc2c(Oc3ccc(S(N)(=O)=NCCN)cc3)ccnc2c1 (stereo not drawn) [Compound 40, N′-(2-aminoethyl)-4-((7-methoxyquinolin-4-yl)oxy)benzenesulfonimidamide]"
2,< 10 nM,"COc1ccc2c(Oc3ccc(S(N)(=O)=NCCNC(C)=O)cc3)ccnc2c1 (stereo not drawn) [Compound 41, N-(2-((amino(4-((7-methoxyquinolin-4-yl)oxy)phenyl)(oxo)-I^6-sulfaneylidene)amino)ethyl)acetamide]"
3,10 to 100 nM,"COc1ccc2c(Nc3ccc(S(=N)(=O)N(C)C)cc3)ncnc2c1 (stereo not drawn) [Compound 42, 4-((7-methoxyquinazolin-4-yl)amino)-N,N-dimethylbenzenesulfonimidamide]"
4,10 to 100 nM,"COc1ccc2c(Oc3ccc(S(N)(=O)=NC[C@@H]4CCCN4C(=O)OC(C)(C)C)cc3)ccnc2c1 (stereo partly drawn) [Compound 43, tert-butyl (2S)-2-(((amino(4-((7-methoxyquinolin-4-yl)oxy)phenyl)(oxo)-I^6-sulfaneylidene)amino)methyl) pyrrolidine-1-carboxylate]"
5,10 to 100 nM,"COc1ccc2c(Oc3ccc(S(N)(=O)=NC[C@@H]4CCCN4)cc3)ccnc2c1 (stereo partly drawn) [Compound 44, 4-((7-methoxyquinolin-4-yl)oxy)-N′-(((S)-pyrrolidin-2-yl)methyl)benzenesulfonimidamide]"
